In ChEMBL document CHEMBL3228011, “trans-5-(3,3,3-Trifluoro-1-propenyl-)-2'-deoxyuridylate: a mechanism-based inhibitor of thymidylate synthetase” (J Med Chem, 1979):
The source made the active and inactive calls. The rule behind the calls is not given here.

Assays:
[1] = biological target: T1, Thymidylate synthase (Homo sapiens, UniProt P04818); assay: Inhibition of thymidylate synthetase (unknown origin) assessed as decrease of first order enzyme activity in absence of 5,10-methylenetetrahydrofolate
Target sequence in this assay (P04818 2-313 limits assumed): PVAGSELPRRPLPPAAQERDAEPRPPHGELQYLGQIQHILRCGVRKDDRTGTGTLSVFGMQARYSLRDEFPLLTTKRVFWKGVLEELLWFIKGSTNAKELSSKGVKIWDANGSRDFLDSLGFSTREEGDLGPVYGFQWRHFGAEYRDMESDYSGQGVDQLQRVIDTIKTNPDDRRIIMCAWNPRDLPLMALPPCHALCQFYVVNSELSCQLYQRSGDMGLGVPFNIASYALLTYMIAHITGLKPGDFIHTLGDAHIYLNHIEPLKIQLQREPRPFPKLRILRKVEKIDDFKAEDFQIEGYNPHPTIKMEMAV

[2] = biological target: T1, Thymidylate synthase; assay: Binding affinity to thymidylate synthetase (unknown origin)
Target sequence in this assay (P04818 whole entry): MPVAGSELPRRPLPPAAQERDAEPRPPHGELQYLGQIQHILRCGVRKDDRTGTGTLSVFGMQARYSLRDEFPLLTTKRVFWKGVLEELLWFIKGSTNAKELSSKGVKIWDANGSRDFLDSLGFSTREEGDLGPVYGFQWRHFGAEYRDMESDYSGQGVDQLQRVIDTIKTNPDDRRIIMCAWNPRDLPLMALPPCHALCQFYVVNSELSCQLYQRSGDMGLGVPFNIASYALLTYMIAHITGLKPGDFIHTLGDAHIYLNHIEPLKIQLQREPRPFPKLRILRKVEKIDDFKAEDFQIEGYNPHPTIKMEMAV

[3] = biological target: T1, Thymidylate synthase; assay: Competitive inhibition of thymidylate synthetase (unknown origin) in presence of 5,10-methylenetetrahydrofolate
Target sequence in this assay (P04818 whole entry): as above

[4] = biological target: T1, Thymidylate synthase; assay: Inhibition of thymidylate synthetase (unknown origin) assessed as decrease of first order enzyme activity in absence of 5,10-methylenetetrahydrofolate and presence of dUMP
Target sequence in this assay (P04818 2-313 limits assumed): as the sequence (P04818 2-313 limits assumed) above

inhibition [1]: Active
Kd [2]: 25 µM
Ki [3]: 8.6 µM
inhibition [4]: inactive
SMILES: O=c1[nH]c(=O)n([C@H]2C[C@H](O)[C@@H](COP(=O)(O)O)O2)cc1/C=C/C(F)(F)F
